Measured values reported in patent publication US20220265657A1, “ADMINISTRATION METHOD AND DOSAGE REGIMEN FOR TREATMENT OF NEURODEGENERATIVE DISEASES USING TRAMETINIB AND MARKERS” (GENUV INC., priority 2019, published 2022).
Read-outs that look alike come from different tables or passages of the source.

Experiments:
SH-SY5Y cells = experiment: Western blot of SH-SY5Y cell lysates; assay type: cell-based
Method: (§1) Cell culture: SH-SY5Y neuroblastoma cells were cultured at 37° C., 5% CO2., in Dulbecco's Modified Eagle Medium/Ham's F-12 nutrient mixture (DMEM/F12) (Invitrogen, Carlsbad, Calif.) supplemented with 10% heat-inactivated fetal bovine serum containing 100 units/ml penicillin, 100 μg/ml streptomycin. Primary cortical neuron cultures were derived from embryo day 18 (E18) from ICR mice. The dissociated cells were plated on glass cover slips coated with poly-D-lysine in Neurobasal medium supplemented with 2% B27 (Invitrogen), 100 units/ml penicillin, 100 μg/ml streptomycin, and 2 mM L-glutamine. Primary NSCs from normal mice were isolated from the subventricular zone (SVZ) of 8 week-old C57BL/6 mice brain. NSCs from adult Tg2576 mice brain were obtained from Seoul National University Hospital. The neurospheres were cultured as previously described (M. Y. Kim, B. S. Moon, K. Y. Choi, Isolation and maintenance of cortical neural progenitor cells in vitro. Methods Mol Biol 1018, 3-10 (2013)). For neurosphere culture from normal mice, the cells were dissociated from brain tissue and grown in N2 medium in 25 cm^2 flasks (SPL, Gyeonggi-do, Korea) in suspension. bFGF (20 ng/ml, Peprotech, Princeton, N.J.) and human EGF (20 ng/ml, Peprotech) were added to the media to allow the cells to form neurospheres. For analyses, NSCs were cultured as a monolayer. For differentiation of NSCs, the neurospheres were dissociated with TrypLE (Invitrogen), plated on 15 μg/ml poly-L-ornithine-(Sigma-Aldrich, St. Louis, Mo.) and 10 μg/ml fibronectin (Gibco)-coated plates, and cultured in bFGF- and EGF-depleted N2 medium for 2 days. For neurosphere culture from Tg2576 mice, the cells were grown in DMEM/F12 supplemented with B27 supplements in 75 cm^2 flasks (SPL) in suspension. bFGF (10 ng/ml) and human EGF (10 ng/ml) were added to the media to allow the cells to form neurospheres. For inducing differentiation and AP expression, the neurospheres were dissociated with pipetting, plated on 15 μg/ml poly-L-ornithine- and 10 μg/ml fibronectin (Gibco)-coated plates, and cultured in bFGF- and EGF-depleted medium for 2 days.
Lysates were centrifuged at 13,000 rpm for 20 min at 4° C., and the protein content in the supernatant was determined using the Bradford assay (Bio-rad, Hercules, Calif.). For subcellular fractionation, cells were lysed with lysis buffer (250 mM Sucrose, 20 mM HEPES, pH 7.4, 10 mM KCl, 1.5 mM MgCl2, 1 mM EGTA, 1 mM EDTA, 1 mM DTT) containing protease inhibitor for 30 min on ice, followed by centrifugation at 720 g for 5 min at 4° C. Supernatants were centrifuged at 15,000 rpm for 10 min at 4° C., and the resulting supernatant was used as the cytosol fraction. After centrifugation at 720 g for 5 min, pellets were washed with lysis buffer and dissolved in nuclear lysis buffer (50 mM Tris HCl, pH 8.0, 150 mM NaCl, 1% NP40, 0.5% sodium deoxycholate, 0.1% SDS, 10% glycerol) as the nuclear fraction. Protein from each sample was subjected to 8%˜15% SDS-PAGE, and the resolved proteins were transferred to nitrocellulose or polyvinylidene fluoride membrane. The membranes were blocked with 5% nonfat milk powder in Tris-buffered saline/Tween 20 (TBST) for 1 h at room temperature, then incubated with anti-phospho-ERK (Cell signaling), anti-ERK (Cell signaling), anti-LAMP1 (Abcam), anti-LC3 (Cell signaling), anti-cathepsin B (Cell signaling), anti-p62 (Cell signaling), anti-p62 (5114, Cell signaling), anti-phospho-mTOR (5536, Cell signaling), anti-mTOR (2983, Cell signaling), anti-phospho-ULK1 (14202, Cell signaling), anti-ULK1 (8054, Cell signaling), anti-TFEB (852501, Biolegend), and anti-GAPDH (Cell signaling) overnight at 4° C.

[1] = system: whole brains of normal mice; experiment: Bulk RNA-Seq of whole brains of normal mice; assay type: in vivo; conditions: FC ≥1.3, FDR <0.05
Method: Trametinib treatment: Trametinib (Medchemexpress, Monmouth Junction, N.J.) was micronized and suspended in the vehicle containing 5% mannitol, 1.5% hydroxypropyl methylcellulose and 0.2% sodium lauryl sulfate. For pharmacokinetic analysis, 0.05, 0.2 and 0.8 mg/kg of trametinib were orally administered to 7-week-old normal mice (ICR, n=5 per group) as a single administration. […] For studies on the change in pERK expression in normal mice and whole cell RNA sequencing study, 0.1 mg/kg/day of trametinib (in 4% DMSO+96% corn oil) was orally administered to 6-week old C57BL/6 mice (n=3 per group). Mice were sacrificed after 1, 2, 3, or 4 weeks of administration. 5XFAD mice (male, n=7˜10 per group) were divided into vehicle and trametinib treated groups. 12-month old mice received vehicle or 0.1 mg/kg of trametinib for 1 month by oral gavage once a day (These mice are referred to as “13-month old 5XFAD mice” in the Examples). […] Blood was obtained after completion of treatment.
Whole cell RNA sequencing: RNA was isolated from mice whole brain, and cDNA libraries for RNA sequencing were prepared using the TruSeq Stranded mRNA Prep Kit (Illumina, San Diego, Calif.) according to the manufacturer's guidelines (1). The libraries were sequenced on the Illumina Nextseq500 platform, and the reads were mapped to the reference Mouse mm10 genome using Tophat v2.0.13. […] To define differentially expressed genes (DEG), we set up a stringent statistic cutoff of fold change (FC) of ≥1.3 and a false discovery rate (FDR)<0.05. […] Gene ontology was performed with the Gene Ontology program of the gene ontology consortium. Heatmap analysis was performed by R studio using the DEG list related with synapse, neurogenesis and lysosome.

5XFAD mice = conditions: 8-month old 5XFAD mice
primary cortical neurons = experiment: Dendritic spine formation in primary cortical neurons; assay type: cell-based, ICR mice
Method: as §1, with “For inducing differentiation and AP expression, the neurospheres were dissociated with pipetting, plated on 15 μg/ml poly-L-ornithine- and 10 μg/ml fibronectin (Gibco)-coated plates, and cultured in bFGF- and EGF-depleted medium for 2 days.” left out

[2] = SH-SY5Y cells treated with Aβ1-42
[3] = SH-SY5Y cells, in the presence of Aβ1-42 oligomers

CC(=O)Nc1cccc(-n2c(=O)n(C3CC3)c(=O)c3c(Nc4ccc(I)cc4F)n(C)c(=O)c(C)c32)c1 [trametinib]
increase of LC3-II/LC-I level compared to Aβ1-42 treated alone cells (SH-SY5Y cells; [2]): 65% | increase of mature cathepsin B level compared to Aβ1-42 treated alone cells (SH-SY5Y cells; [2]): 44% | nuclear translocation of TFEB (SH-SY5Y cells; [3]): induced nuclear translocation of TFEB | p62 as a marker of autophagic flux (SH-SY5Y cells; [3]): Degradation of p62 | phosphorylation of mTOR and ULK1 on Ser758 (SH-SY5Y cells; [3]): inhibited the phosphorylation | number of differentially expressed genes (DEGs) between vehicle and trametinib group ([1]; first week): 500 | number of differentially expressed genes (DEGs) between vehicle and trametinib group ([1]; fourth week): 538 | number of differentially expressed genes (DEGs) between vehicle and trametinib group ([1]; second week): 498 | number of differentially expressed genes (DEGs) between vehicle and trametinib group ([1]; third week): 446 | MBP levels (5XFAD mice; 0.05 mg/kg/day): restored back to levels comparable to that of wild type mice | MBP levels (5XFAD mice; 0.1 mg/kg/day): restored back to levels comparable to that of wild type mice | increase in number of dendritic spines compared to vehicle treated group (primary cortical neurons; 100 nM): 24% | increase in number of dendritic spines compared to Aβ1-42 treated alone group (primary cortical neurons; Aβ1-42 oligomer-induced neurotoxic conditions): 80%
